Experimental findings from ChEMBL document CHEMBL1153691, “2-Deoxyadenylyl-(35)-isodideoxyadenosine, a unique dinucleotide: Synthesis, enzymology, and conformational studies” (Bioorg Med Chem Lett, 1995) are described below.

Data set [1] deals with snake venom phosphodiesterase. Briefly: Enzymatic stability was assessed with snake venom phosphodiesterase (SV PDE) exonuclase. Type of data set: ADME. The settings on record: serpentes, snake venom phosphodiesterase (SV PDE) exonuclease.
For data set [2], the system named is bovine spleen phosphodiesterase. Briefly: Enzymatic stability was assessed with bovine spleen phosphodiesterase (BS PDE) exonuclase. The class given is ADME, Bos taurus. To be noted: cattle, bovine spleen phosphodiesterase (BS PDE) exonuclease.
In data set [3] the target is Human immunodeficiency virus type 1 reverse transcriptase (Human immunodeficiency virus 1, UniProt Q72547). Briefly: Inhibitory activity against HIV reverse transcriptase (HIV RT).

In general, half-life refers to how long it takes for the measured level to halve. For the compound `Nc1ncnc2c1ncn2[C@@H]1CO[C@H](COP(=O)([O-])OC2C[C@H](n3cnc4c(N)ncnc43)OC2CO)C1.[Na+]` (stereo not given in full), the values for the half-life in data set [1] and in data set [2] were more than 550 min and 50 min, respectively.

`Nc1ncnc2c1ncn2[C@H]1C[C@H](OP(=O)(O)OC[C@H]2O[C@@H](n3cnc4c(N)ncnc43)C[C@@H]2O)[C@@H](CO)O1`: the values for the half-life in data set [1] and in data set [2] were less than 1 min and 1.5 min, respectively.

The term Ki denotes the dissociation constant of the complex between target and ligand, obtained from inhibition or displacement. In data set [3], `Nc1ncnc2c1ncn2C1COC(COP(=O)(O)OP(=O)(O)OP(=O)(O)O)C1` (stereo not given) yielded an inhibition constant (Ki) of 16 nM. In other words, the double-digit nanomolar range.
